{"source": "patent US20020137929A1", "about": "“1 - (3-heterocyclylphenyl) isothiourea, -isourea, -guanidine and -amidine herbicidal agents” (Intellectual Property Department, BASF Aktiengesellschaft, priority 1998, published 2002)", "key": {"[1]": {"tested_on": "GLXMAW (Soybean, Williams)", "experiment": "Preemergence herbicidal evaluation", "assay_type": "in vivo, Glycine max, (L.) Merr. cv Williams", "details": "rated 4-5 weeks after treatment", "outline": "(§1)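 Visual 0-9 rating vs control (stand, vigor, malformation, size, chlorosis, overall appearance), scored 4-5 wk after spraying. Seeded soil cups were treated preemergence with compound in aqueous acetone, ~0.0156-0.500 kg/ha equivalent.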"}, "CYPSE (Flatsedge)": {"tested_on": "CYPSE (Flatsedge)", "experiment": "Preemergence weed control under flooded paddy conditions", "assay_type": "in vivo, Cyperus serotinus", "details": "rated 3-4 weeks after treatment", "outline": "(§2)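 Seeds or propagules sown in top 0.5 cm of silt loam soil, flooded 1.5 to 3 cm above surface throughout. Compound in 50/50 v/v aqueous/acetone pipetted into flood water at about 0.0313 to 0.500 kg/ha. Visual 0-9 rating versus control after three to four weeks in greenhouse.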"}, "AMBEL (Ragweed, Common) [2]": {"tested_on": "AMBEL (Ragweed, Common)", "experiment": "Postemergence herbicidal evaluation", "assay_type": "in vivo, Ambrosia artemisifolia", "details": "postemergence", "outline": "(§3)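 ~2-wk seedlings; postemergence spray, 40 psi; vehicle 1:1 acetone:water + 0.5% Tween 20; rate ≈0.0156–0.500 kg/ha; greenhouse hold; scored 4–5 wk after treatment, 0–9 scale vs control; repeat tests averaged.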"}, "ZEAMX (Corn, Field)": {"tested_on": "ZEAMX (Corn, Field)", "experiment": "Postemergence herbicidal evaluation", "assay_type": "in vivo, Zea mays", "details": "postemergence", "outline": "as §3"}, "CASOB (Sicklepod)": {"tested_on": "CASOB (Sicklepod)", "experiment": "Preemergence herbicidal evaluation", "assay_type": "in vivo, Cassia obtusifolia", "details": "rated 4-5 weeks after treatment", "outline": "as §1"}, "[3]": {"tested_on": "SAGPY (Arrowhead (Pygmaea))", "experiment": "Preemergence weed control under flooded paddy conditions", "assay_type": "in vivo, Sagittaria pygmaea", "details": "rated 3-4 weeks after treatment", "outline": "as §2"}, "AMBEL (Ragweed, Common) [4]": {"tested_on": "AMBEL (Ragweed, Common)", "experiment": "Preemergence herbicidal evaluation", "assay_type": "in vivo, Ambrosia artemisifolia", "details": "rated 4-5 weeks after treatment", "outline": "as §1"}, "ECHCG (Barnyardgrass)": {"tested_on": "ECHCG (Barnyardgrass)", "experiment": "Preemergence herbicidal evaluation", "assay_type": "in vivo, Echinochloa crus-galli", "details": "rated 4-5 weeks after treatment", "outline": "as §1"}, "[5]": {"tested_on": "GLXMAW (Soybean, Williams)", "experiment": "Postemergence herbicidal evaluation", "assay_type": "in vivo, Glycine max, (L.) Merr. cv Williams", "details": "postemergence", "outline": "as §3"}, "ABUTH (Velvetleaf)": {"tested_on": "ABUTH (Velvetleaf)", "experiment": "Preemergence herbicidal evaluation", "assay_type": "in vivo, Abutilon theophrasti", "details": "rated 4-5 weeks after treatment", "outline": "as §1"}, "[6]": {"tested_on": "IPOHE (Morningglory, Ivyleaf)", "experiment": "Postemergence herbicidal evaluation", "assay_type": "in vivo, Ipomoea hederacea", "details": "postemergence", "outline": "as §3"}, "GALAP (Galium)": {"tested_on": "GALAP (Galium)", "experiment": "Preemergence herbicidal evaluation", "assay_type": "in vivo, Galium aparine", "details": "rated 4-5 weeks after treatment", "outline": "as §1"}, "SETVI (Foxtail, Green)": {"tested_on": "SETVI (Foxtail, Green)", "experiment": "Preemergence herbicidal evaluation", "assay_type": "in vivo, Setaria viridis", "details": "rated 4-5 weeks after treatment", "outline": "as §1"}}, "data": [{"compound": "C=CCN1C(=O)C(CC(=O)NO)SC1=Nc1cc(-n2c(=O)cc(C(F)(F)F)n(C)c2=O)c(F)cc1Cl", "note": "(centres unmarked) [Compound 161, 3-Allyl-2-{{2-chloro-5-[3,6-dihydro-3-methyl-2,6-dioxo-4-(trifluoromethyl)-1(2H)-pyrimidinyl]-4-fluorophenyl}imino}-4-oxo-5-thiazolidineacetohydroxamic acid]", "values": [{"measurement": "Preemergence herbicidal rating GLXMAW", "setting": "[1]; 0.0156 kg/ha", "result": 0.0}, {"measurement": "Preemergence herbicidal rating GLXMAW", "setting": "[1]; 0.0313 kg/ha", "result": 1.0}, {"measurement": "Preemergence herbicidal rating GLXMAW", "setting": "[1]; 0.0625 kg/ha", "result": 1.0}, {"measurement": "Preemergence herbicidal rating GLXMAW", "setting": "[1]; 0.1250 kg/ha", "result": 7.0}, {"measurement": "Preemergence herbicidal rating GLXMAW", "setting": "[1]; 0.2500 kg/ha", "result": 9.0}, {"measurement": "Preemergence herbicidal rating GLXMAW", "setting": "[1]; 0.5000 kg/ha", "result": 9.0}, {"measurement": "herbicidal effect rating, CYPSE", "setting": "CYPSE (Flatsedge); 0.0313 kg/ha", "result": 0.0}, {"measurement": "herbicidal effect rating, CYPSE", "setting": "CYPSE (Flatsedge); 0.0625 kg/ha", "result": 0.0}, {"measurement": "herbicidal effect rating, CYPSE", "setting": "CYPSE (Flatsedge); 0.1250 kg/ha", "result": 0.0}, {"measurement": "herbicidal effect rating, CYPSE", "setting": "CYPSE (Flatsedge); 0.2500 kg/ha", "result": 3.0}, {"measurement": "herbicidal rating AMBEL", "setting": "AMBEL (Ragweed, Common) [2]; rate 0.0156 kg/ha", "result": 1.0}, {"measurement": "herbicidal rating AMBEL", "setting": "AMBEL (Ragweed, Common) [2]; rate 0.0313 kg/ha", "result": 4.0}, {"measurement": "herbicidal rating AMBEL", "setting": "AMBEL (Ragweed, Common) [2]; rate 0.0625 kg/ha", "result": 9.0}, {"measurement": "herbicidal rating AMBEL", "setting": "AMBEL (Ragweed, Common) [2]; rate 0.1250 kg/ha", "result": 9.0}, {"measurement": "herbicidal rating ZEAMX", "setting": "ZEAMX (Corn, Field); rate 0.0156 kg/ha", "result": 4.5}, {"measurement": "herbicidal rating ZEAMX", "setting": "ZEAMX (Corn, Field); rate 0.0313 kg/ha", "result": 6.5}, {"measurement": "herbicidal rating ZEAMX", "setting": "ZEAMX (Corn, Field); rate 0.0625 kg/ha", "result": 7.0}, {"measurement": "herbicidal rating ZEAMX", "setting": "ZEAMX (Corn, Field); rate 0.1250 kg/ha", "result": 7.5}, {"measurement": "Preemergence herbicidal rating CASOB", "setting": "CASOB (Sicklepod); 0.0156 kg/ha", "result": 0.0}, {"measurement": "Preemergence herbicidal rating CASOB", "setting": "CASOB (Sicklepod); 0.0313 kg/ha", "result": 0.0}, {"measurement": "Preemergence herbicidal rating CASOB", "setting": "CASOB (Sicklepod); 0.0625 kg/ha", "result": 1.0}, {"measurement": "Preemergence herbicidal rating CASOB", "setting": "CASOB (Sicklepod); 0.1250 kg/ha", "result": 9.0}, {"measurement": "Preemergence herbicidal rating CASOB", "setting": "CASOB (Sicklepod); 0.2500 kg/ha", "result": 9.0}, {"measurement": "Preemergence herbicidal rating CASOB", "setting": "CASOB (Sicklepod); 0.5000 kg/ha", "result": 9.0}, {"measurement": "herbicidal effect rating, SAGPY", "setting": "[3]; 0.0313 kg/ha", "result": 2.0}, {"measurement": "herbicidal effect rating, SAGPY", "setting": "[3]; 0.1250 kg/ha", "result": 6.0}, {"measurement": "herbicidal effect rating, SAGPY", "setting": "[3]; 0.2500 kg/ha", "result": 9.0}, {"measurement": "Preemergence herbicidal rating AMBEL", "setting": "AMBEL (Ragweed, Common) [4]; 0.0156 kg/ha", "result": 0.0}, {"measurement": "Preemergence herbicidal rating AMBEL", "setting": "AMBEL (Ragweed, Common) [4]; 0.0313 kg/ha", "result": 3.0}, {"measurement": "Preemergence herbicidal rating AMBEL", "setting": "AMBEL (Ragweed, Common) [4]; 0.0625 kg/ha", "result": 5.0}, {"measurement": "Preemergence herbicidal rating AMBEL", "setting": "AMBEL (Ragweed, Common) [4]; 0.1250 kg/ha", "result": 9.0}, {"measurement": "Preemergence herbicidal rating AMBEL", "setting": "AMBEL (Ragweed, Common) [4]; 0.2500 kg/ha", "result": 9.0}, {"measurement": "Preemergence herbicidal rating AMBEL", "setting": "AMBEL (Ragweed, Common) [4]; 0.5000 kg/ha", "result": 9.0}, {"measurement": "Preemergence herbicidal rating ECHCG", "setting": "ECHCG (Barnyardgrass); 0.0156 kg/ha", "result": 0.0}, {"measurement": "Preemergence herbicidal rating ECHCG", "setting": "ECHCG (Barnyardgrass); 0.0313 kg/ha", "result": 0.0}, {"measurement": "Preemergence herbicidal rating ECHCG", "setting": "ECHCG (Barnyardgrass); 0.0625 kg/ha", "result": 0.0}, {"measurement": "Preemergence herbicidal rating ECHCG", "setting": "ECHCG (Barnyardgrass); 0.1250 kg/ha", "result": 4.0}, {"measurement": "Preemergence herbicidal rating ECHCG", "setting": "ECHCG (Barnyardgrass); 0.2500 kg/ha", "result": 7.0}, {"measurement": "Preemergence herbicidal rating ECHCG", "setting": "ECHCG (Barnyardgrass); 0.5000 kg/ha", "result": 9.0}, {"measurement": "herbicidal rating GLXMAW", "setting": "[5]; rate 0.0156 kg/ha", "result": 5.0}, {"measurement": "herbicidal rating GLXMAW", "setting": "[5]; rate 0.0313 kg/ha", "result": 6.5}, {"measurement": "herbicidal rating GLXMAW", "setting": "[5]; rate 0.0625 kg/ha", "result": 7.0}, {"measurement": "herbicidal rating GLXMAW", "setting": "[5]; rate 0.1250 kg/ha", "result": 8.5}, {"measurement": "Preemergence herbicidal rating ABUTH", "setting": "ABUTH (Velvetleaf); 0.0156 kg/ha", "result": 0.0}, {"measurement": "Preemergence herbicidal rating ABUTH", "setting": "ABUTH (Velvetleaf); 0.0313 kg/ha", "result": 1.0}, {"measurement": "Preemergence herbicidal rating ABUTH", "setting": "ABUTH (Velvetleaf); 0.0625 kg/ha", "result": 2.0}, {"measurement": "Preemergence herbicidal rating ABUTH", "setting": "ABUTH (Velvetleaf); 0.1250 kg/ha", "result": 9.0}, {"measurement": "Preemergence herbicidal rating ABUTH", "setting": "ABUTH (Velvetleaf); 0.2500 kg/ha", "result": 9.0}, {"measurement": "Preemergence herbicidal rating ABUTH", "setting": "ABUTH (Velvetleaf); 0.5000 kg/ha", "result": 9.0}, {"measurement": "herbicidal rating IPOHE", "setting": "[6]; rate 0.0156 kg/ha", "result": 1.0}, {"measurement": "herbicidal rating IPOHE", "setting": "[6]; rate 0.0313 kg/ha", "result": 3.0}, {"measurement": "herbicidal rating IPOHE", "setting": "[6]; rate 0.0625 kg/ha", "result": 9.0}, {"measurement": "herbicidal rating IPOHE", "setting": "[6]; rate 0.1250 kg/ha", "result": 9.0}, {"measurement": "Preemergence herbicidal rating GALAP", "setting": "GALAP (Galium); 0.0156 kg/ha", "result": 0.0}, {"measurement": "Preemergence herbicidal rating GALAP", "setting": "GALAP (Galium); 0.0313 kg/ha", "result": 0.0}, {"measurement": "Preemergence herbicidal rating GALAP", "setting": "GALAP (Galium); 0.0625 kg/ha", "result": 3.0}, {"measurement": "Preemergence herbicidal rating GALAP", "setting": "GALAP (Galium); 0.1250 kg/ha", "result": 7.0}, {"measurement": "Preemergence herbicidal rating GALAP", "setting": "GALAP (Galium); 0.2500 kg/ha", "result": 7.0}, {"measurement": "Preemergence herbicidal rating GALAP", "setting": "GALAP (Galium); 0.5000 kg/ha", "result": 9.0}, {"measurement": "Preemergence herbicidal rating SETVI", "setting": "SETVI (Foxtail, Green); 0.0156 kg/ha", "result": 0.0}, {"measurement": "Preemergence herbicidal rating SETVI", "setting": "SETVI (Foxtail, Green); 0.0313 kg/ha", "result": 0.0}, {"measurement": "Preemergence herbicidal rating SETVI", "setting": "SETVI (Foxtail, Green); 0.0625 kg/ha", "result": 7.0}, {"measurement": "Preemergence herbicidal rating SETVI", "setting": "SETVI (Foxtail, Green); 0.1250 kg/ha", "result": 9.0}, {"measurement": "Preemergence herbicidal rating SETVI", "setting": "SETVI (Foxtail, Green); 0.2500 kg/ha", "result": 9.0}, {"measurement": "Preemergence herbicidal rating SETVI", "setting": "SETVI (Foxtail, Green); 0.5000 kg/ha", "result": 9.0}]}]}
